The numbers were not newly measured in patent US11338055B2, “Wound dressing” (Animal Ethics Pty Ltd, priority 2017, dated 2022), which cites them from elsewhere.

For the data set the following is noted: typically up to about; depending on the method of administration.

Consider `CCCCN1CCCCC1C(=O)Nc1c(C)cccc1C` (stereo not shown) [bupivacaine], for which the duration of anaesthesia was 6 to 12 h.
